Results on 6 molecules are retold here after patent US9828349B2, “1-aryl-1-hydroxy-2,3-diamino-propyl amines, 1-heteroaryl-1-hydroxy-2,3-diamino-propyl amines and related compounds having analgesic and/or immuno stimulant activity” (Allergan, Inc., priority 2005, dated 2017).

In test [1] the test system is spatial memory deficit after transient forebrain ischemia. As to conditions: treatment after transient forebrain ischemia in rats; cited from earlier work.
Test [2] deals with tactile allodynia (Chung model). In words: Chung model: reversal of tactile allodynia after spinal nerve ligation (von Frey hairs). As to conditions: highest % allodynia reversal out of 15, 30, 60 min post-drug, rat. In kind it is in vivo. From the text:
An art-accepted model or assay for measuring an analgesic effect of a compound in chronic pain (in particular peripheral neuropathy) is the model known as Kim and Chung 1992, Pain […], pp 355-363 (Chung model). This model involves the surgical ligation of the L5 (and optionally the L6) spinal nerves on one side in experimental animals. Rats recovering from the surgery gain weight and display a level of general activity similar to that of normal rats. However, these rats develop abnormalities of the foot, wherein the hindpaw is moderately everted and the toes are held together. More importantly, the hindpaw on the side affected by the surgery appears to become sensitive to low-threshold mechanical stimuli and will perceive pain instead of the faint sensation of touch. This sensitivity to normally non-painful touch, called “tactile allodynia”, develops within the first week after surgery and lasts for at least two months. The allodynia response includes lifting the affected hindpaw to escape from the stimulus, licking the paw and holding it in the air for many seconds. None of these responses is normally seen in the control group.
To produce the tactile allodynia, rats are anesthetized before surgery. The surgical site is shaved and prepared either with betadine or Novacaine. Incision is made from the thoracic vertebra XIII down toward the sacrum. Muscle tissue is separated from the spinal vertebra (left side) at the L4-S2 levels. […]
Tactile allodynia is assessed via von Frey hairs, which are a series of fine hairs with incremental differences in stiffness. […] The applied force has been calculated to range from 0.41 to 15.1 grams. […] The 50% paw withdrawal threshold is determined using the method of Dixon, W. J., Ann. […] Tactile allodynia is measured prior to and 15, 30, and 60 minutes after drug administration. The post-drug threshold is compared to the pre-drug threshold and the percent reversal of tactile sensitivity is calculated based on a normal threshold of 15.1 grams. […]

The target of the next test is T1, GlcCer synthase (Homo sapiens, UniProt Q16739).
T1 sequence (Q16739 1-394): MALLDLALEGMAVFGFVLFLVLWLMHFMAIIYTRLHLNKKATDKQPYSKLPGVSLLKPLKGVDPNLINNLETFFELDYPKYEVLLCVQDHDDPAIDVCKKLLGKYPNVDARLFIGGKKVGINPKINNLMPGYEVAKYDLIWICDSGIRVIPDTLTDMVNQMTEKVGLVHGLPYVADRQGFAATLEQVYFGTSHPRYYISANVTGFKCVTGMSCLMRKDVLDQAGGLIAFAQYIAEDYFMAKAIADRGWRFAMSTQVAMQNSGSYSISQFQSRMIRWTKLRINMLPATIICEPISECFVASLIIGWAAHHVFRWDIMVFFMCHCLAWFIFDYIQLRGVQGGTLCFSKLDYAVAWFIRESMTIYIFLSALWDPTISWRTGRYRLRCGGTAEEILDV
To be noted: cited from earlier work.

Consider `CCCCCCCCCC(=O)N[C@@H](CN1CCOCC1)[C@@H](O)c1ccccc1` [L-threo-PDMP, (1S,2S)-1-phenyl-2-decanoylamino-3-morpholino-1-propanol], for which the “deficit of a well learned spatial memory (8-arm maze task)” value in test [1] is given as “ameliorated the deficit of a well learned spatial memory”. Consider `Cl.O=C(N[C@@H](CN1CCOCC1)[C@@H](O)c1ccccc1)OCc1ccccc1` [Compound 1, benzyl L-threo-1-hydroxy-3-morpholino-1-phenylpropan-2-ylcarbamate hydrochloride], for which the “Peak % Pain reversal” value in test [2] (300 μg/kg IP) is listed as 44%. As to `CC(=O)O[C@@H](c1ccccc1)[C@H](CN1CCOCC1)NC(=O)OCc1ccccc1.Cl` [Compound 3, benzyl L-threo-1-acetoxy-3-morpholino-1-phenylpropan-2-ylcarbamate hydrochloride], the “Peak % Pain reversal” value in test [2] (300 μg/kg IP) is reported as 92%. On to `CCCCCCCCCCCCCCCC(=O)N[C@H](CN1CCCC1)[C@H](O)c1ccc(O)cc1` [D-threo-4′-hydroxy-P4], for which the “inhibition of GCS (glucosylceramide synthase)” value at GlcCer synthase is on record as “one of the most potent inhibitor of GCS”. As to `O=C(N[C@H](CN1CCCC1)[C@H](O)c1ccccc1)OCc1ccccc1` [PBPP, D-threo-1-phenyl-2-benzyloxycarbonylamino-3-pyrrolidino-1-propanol], the “inhibition of GCS (glucosylceramide synthase)” value at GlcCer synthase is recorded as “potent GCS inhibitor”.

With `N[C@@H](CN1CCCC1)[C@@H](O)c1ccncc1` (racemic) [Compound 46, DL-threo-2-amino-1-(pyridin-4-yl)-3-(pyrrolidin-1-yl)propan-1-ol], the “Peak % Pain reversal” value in test [2] (30 μg/kg IP) was 96%.
